Read-outs that look alike come from different tables or passages of the source.
Assays:
[1] = cited from earlier work
[2] = Evaluation of storage stability (green tea); assay type: physicochemical; settings: 0.03% as hesperetin-7-glucoside; for presence or absence of the precipitates, 4° C.: 7 days at 4° C.; for presence or absence of the precipitates, 25° C.: 7 days at 25° C.
Description: Evaluation of Storage Stability (Green Tea)
Hesperidin (manufactured by Hamari Chemicals., Ltd.), hesperetin-7-glucoside (prepared in the following), a flavonoid inclusion compound of Example 22 or a composition of flavonoid glycosides of Example 40 was added to a commercially available green tea (“Oi Ocha,” manufactured by ITO EN, LTD.) so as to have a concentration calculated as 0.03% in terms of hesperetin-7-glucoside conversion. The mixture was allowed to stand for 7 days at 4° C. and 25° C., and the presence or absence of the precipitates was then visually observed.
Seven grams of Hesperidin (manufactured by Hamari Chemicals., Ltd.) was added to […] of an aqueous solution, and the solution was adjusted to 70° C. and a pH of 4.5. Thereafter, 0.5 g of naringinase (Amano Enzyme Inc. 155 u/g) was added thereto while stirring, and the solution was recovered and dried, to give 4.2 g of hesperetin-7-glucoside having a content of 96% or more. Identification as being hesperetin-7-glucoside and a content thereof were analyzed by NMR and HPLC in the same manner as mentioned above.

[3] = Evaluation of bioavailability; assay type: in vivo
Description: Evaluation of Bioavailability
Nine-week-old Wister rats (male) were given with MF (Oriental Yeast Co., Ltd.) and bred for 7 days, and the rats were then subjected to fasting from the day before the administration of a test substance. Thereafter, 100 μmol/kg (calculated as IQC) of a dried product of Example 16 prepared in the evaluation of the effects of preventing flavor deterioration, a rutin suspension (Alps Pharmaceutical Ind., Co., Ltd., 100 μmol/kg (calculated as IQC)), 1,000 μmol/kg (calculated as HPT-7G) of dried product of Example 22 prepared in the evaluations of the effects of preventing flavor deterioration, and a hesperidin suspension (Hamari Chemicals., Ltd., 1,000 μmol/kg (calculated as HPT-7G)) were orally administered to the rats in a single dose (orally administered by gavage, n=2). Blood collection into heparinized tubes was carried out from tail veins of rats 30 minutes, 1 hour and 3 hours after the administration, and the blood was centrifuged to obtain plasma. In the drawn sera sample, the amounts of quercetin derivatives were measured according to a method by Makino et al (Biol. pharm. Bull., 32(12) 2034, 2009), and the amounts of hesperetin derivatives were measured according to a method by Yamada et al (Biosci. Biotechnol. Biochem, 70(6), 1386, 2006), and analysis was made by applying the sample to high-performance liquid chromatography (SHIMADZU) and using a photodiode array detector (SPD-M30A, SHIMADZU).

[4] = Evaluation of storage stability (lemon beverage); assay type: physicochemical; settings: 0.3% as naringenin-7-glucoside; for presence or absence of the precipitates, 4° C.: 1 month at 4° C.; for presence or absence of the precipitates, 25° C.: 1 month at 25° C.
Description: Evaluation of Storage Stability (Lemon Beverage)
Naringin (manufactured by SIGMA), naringenin-7-glucoside (prepared hereinbelow) or a flavonoid inclusion compound-containing composition of Example 109 was added to a commercially available lemon beverage (C1000 Lemon Water, manufactured by HOUSE […] FOODS CORPORATION) so as to have a concentration calculated as 0.3% in terms of naringenin-7-glucoside conversion, the beverage was allowed to stand for 1 month at 4° C. or 25° C., and the presence or absence of the precipitates was then visually observed.
After the termination of the reaction according to Comparative Example 102, the precipitates that were previously allowed to stand at room temperature were recovered, washed with water, recrystallized and dried, to give 13 g of naringenin-7-glucoside having a content of 95% or more. The identity of the product with a reagent naringenin-7-glucoside (Wako) by HPLC and a content thereof were analyzed.

[5] = compared with rutin, hesperidin, or naringin having a rhamnoside structure

**Q.** For `COc1ccc(C2CC(=O)c3c(O)cc(OC4OC(CO)C(O)C(O)C4O)cc3O2)cc1O` (stereo not drawn) [Hesperetin-7-Glucoside, hesperetin-7-glucoside], which bioavailability in rats ([1]; rat, in vivo) is on record?
**A.** higher

**Q.** And the “presence or absence of the precipitates, 4° C.” value (“presence or absence … 4° C.” for short) [2]?
**A.** x (those in which the precipitates were observed were evaluated as x)

**Q.** What about the “presence or absence of the precipitates, 25° C.” value (from here on “presence or absence … 25° C.”) [2] of the same compound?
**A.** x (those in which the precipitates were observed were evaluated as x)

**Q.** Which results are given for `COc1ccc([C@@H]2CC(=O)c3c(O)cc(O[C@@H]4O[C@H](CO[C@@H]5O[C@@H](C)[C@H](O)[C@@H](O)[C@H]5O)[C@@H](O)[C@H](O)[C@H]4O)cc3O2)cc1O` [Hesperidin]?
**A.** presence or absence of the precipitates, 4° C. [2]: x (those in which the precipitates were observed were evaluated as x); presence or absence of the precipitates, 25° C. [2]: x (those in which the precipitates were observed were evaluated as x); AUC, hesperetin ([3]; rat plasma, single oral 1,000 μmol/kg (calculated as HPT-7G), 0 to 3 hours): 0.082 µM·h; Hesperetin concentration ([3]; rat plasma, single oral 1,000 μmol/kg (calculated as HPT-7G), time of blood drawing 0): 0 µM; Hesperetin concentration ([3]; rat plasma, single oral 1,000 μmol/kg (calculated as HPT-7G), time of blood drawing 0.5 (hours)): 0.003 µM; Hesperetin concentration ([3]; rat plasma, single oral 1,000 μmol/kg (calculated as HPT-7G), time of blood drawing 1 (hour)): 0.064 µM; Hesperetin concentration ([3]; rat plasma, single oral 1,000 μmol/kg (calculated as HPT-7G), time of blood drawing 3 (hours)): 0 µM

**Q.** For `O=c1c(O[C@@H]2O[C@H](CO)[C@@H](O)[C@H](O)[C@H]2O)c(-c2ccc(O)c(O)c2)oc2cc(O)cc(O)c12` [Isoquercitrin, isoquercitrin], which bioavailability in rats [1, 5] is on record?
**A.** higher

**Q.** Which bioavailability in rats [1, 5] does the source give for `O=C1C[C@@H](c2ccc(O)cc2)Oc2cc(O[C@@H]3O[C@H](CO)[C@@H](O)[C@H](O)[C@H]3O)cc(O)c21` [Naringenin-7-glucoside, naringenin-7-glucoside] here?
**A.** higher

**Q.** And the “presence or absence … 4° C.” value [4]?
**A.** x (those in which the precipitates were observed were evaluated as x)

**Q.** And the “presence or absence … 25° C.” value [4]?
**A.** x (those in which the precipitates were observed were evaluated as x)

**Q.** For `C[C@@H]1O[C@@H](O[C@H]2[C@H](Oc3cc(O)c4c(c3)O[C@H](c3ccc(O)cc3)CC4=O)O[C@H](CO)[C@@H](O)[C@@H]2O)[C@H](O)[C@H](O)[C@H]1O` [Naringin], which “presence or absence … 4° C.” value [4] is on record?
**A.** x (those in which the precipitates were observed were evaluated as x)

**Q.** And the “presence or absence … 25° C.” value [4]?
**A.** x (those in which the precipitates were observed were evaluated as x)

**Q.** Which “AUC, Total (quercetin and quercetin derivatives)” value ([3]; male, Wister, rat, in vivo, po, 100 umol/kg) does the source give for `C[C@@H]1O[C@@H](OC[C@H]2O[C@@H](Oc3c(-c4ccc(O)c(O)c4)oc4cc(O)cc(O)c4c3=O)[C@H](O)[C@@H](O)[C@@H]2O)[C@H](O)[C@H](O)[C@H]1O` [Rutin Suspension, rutin] here?
**A.** 0.1 µM·h

**Q.** For `O=C1C[C@@H](c2ccc(O)cc2)Oc2cc(O)cc(O)c21` [naringenin], which bioavailability in rats [1, 5] is on record?
**A.** higher

— patent US10676496B2, “Method for producing flavonoid inclusion compound” (TAIYO KAGAKU CO., LTD., priority 2017, dated 2020)
